Measurements: the kinase profiling compilation of Christmann-Franck et al. (2016)

Tests used:
Assay in all cases: KINOMEscan competition binding
Details in all cases: compound 10.0 µM
[1] = biological target: BMPR1B (human) (UniProt O00238)
[2] = biological target: CAMK1G (human) (UniProt Q96NX5)
[3] = biological target: CDK11B (human) (UniProt P21127)
[4] = biological target: CDK3 (human) (UniProt Q00526)
[5] = biological target: CDK5 (human) (UniProt Q00535)
[6] = biological target: CDKL3 (human) (UniProt Q8IVW4)
[7] = biological target: CHUK (human) (UniProt O15111)
[8] = biological target: CLK1 (human) (UniProt P49759)
CLK1 (human), sequence (P49759 whole entry, looked up): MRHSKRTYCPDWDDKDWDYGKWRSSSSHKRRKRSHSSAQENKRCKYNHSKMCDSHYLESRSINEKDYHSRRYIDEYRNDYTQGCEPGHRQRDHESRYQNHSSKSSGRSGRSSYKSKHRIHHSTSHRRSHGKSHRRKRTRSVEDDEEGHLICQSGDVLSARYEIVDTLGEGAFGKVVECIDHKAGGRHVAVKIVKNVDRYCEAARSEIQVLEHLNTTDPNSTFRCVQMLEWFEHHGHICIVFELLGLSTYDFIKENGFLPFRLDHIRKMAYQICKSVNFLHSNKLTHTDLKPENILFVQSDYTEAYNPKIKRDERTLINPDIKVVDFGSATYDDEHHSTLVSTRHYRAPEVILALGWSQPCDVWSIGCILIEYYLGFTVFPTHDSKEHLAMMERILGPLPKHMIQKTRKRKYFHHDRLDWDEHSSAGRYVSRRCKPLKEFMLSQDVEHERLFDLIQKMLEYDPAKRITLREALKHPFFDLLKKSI

[9] = biological target: CSF1R (human) (UniProt P07333)
[10] = biological target: CSNK1E (human) (UniProt P49674)
[11] = biological target: CSNK2A2 (human) (UniProt P19784)
CSNK2A2 (human), sequence (P19784 whole entry, looked up): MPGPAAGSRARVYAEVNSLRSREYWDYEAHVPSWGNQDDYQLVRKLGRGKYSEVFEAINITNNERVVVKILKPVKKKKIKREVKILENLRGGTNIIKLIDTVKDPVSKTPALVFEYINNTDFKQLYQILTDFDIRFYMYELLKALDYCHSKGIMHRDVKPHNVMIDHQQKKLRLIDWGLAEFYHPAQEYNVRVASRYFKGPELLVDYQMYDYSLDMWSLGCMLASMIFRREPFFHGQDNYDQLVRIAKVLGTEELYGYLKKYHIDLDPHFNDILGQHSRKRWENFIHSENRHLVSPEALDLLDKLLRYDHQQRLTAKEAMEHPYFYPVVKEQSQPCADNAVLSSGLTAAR

[12] = biological target: EPHA5 (human) (UniProt P54756)
[13] = biological target: ERBB2 (human) (UniProt P04626)
[14] = system: FGFR3 (human), P22607 [G697C]
[15] = biological target: FLT3 (human) (UniProt P36888)
FLT3 (human), sequence (P36888 whole entry, looked up): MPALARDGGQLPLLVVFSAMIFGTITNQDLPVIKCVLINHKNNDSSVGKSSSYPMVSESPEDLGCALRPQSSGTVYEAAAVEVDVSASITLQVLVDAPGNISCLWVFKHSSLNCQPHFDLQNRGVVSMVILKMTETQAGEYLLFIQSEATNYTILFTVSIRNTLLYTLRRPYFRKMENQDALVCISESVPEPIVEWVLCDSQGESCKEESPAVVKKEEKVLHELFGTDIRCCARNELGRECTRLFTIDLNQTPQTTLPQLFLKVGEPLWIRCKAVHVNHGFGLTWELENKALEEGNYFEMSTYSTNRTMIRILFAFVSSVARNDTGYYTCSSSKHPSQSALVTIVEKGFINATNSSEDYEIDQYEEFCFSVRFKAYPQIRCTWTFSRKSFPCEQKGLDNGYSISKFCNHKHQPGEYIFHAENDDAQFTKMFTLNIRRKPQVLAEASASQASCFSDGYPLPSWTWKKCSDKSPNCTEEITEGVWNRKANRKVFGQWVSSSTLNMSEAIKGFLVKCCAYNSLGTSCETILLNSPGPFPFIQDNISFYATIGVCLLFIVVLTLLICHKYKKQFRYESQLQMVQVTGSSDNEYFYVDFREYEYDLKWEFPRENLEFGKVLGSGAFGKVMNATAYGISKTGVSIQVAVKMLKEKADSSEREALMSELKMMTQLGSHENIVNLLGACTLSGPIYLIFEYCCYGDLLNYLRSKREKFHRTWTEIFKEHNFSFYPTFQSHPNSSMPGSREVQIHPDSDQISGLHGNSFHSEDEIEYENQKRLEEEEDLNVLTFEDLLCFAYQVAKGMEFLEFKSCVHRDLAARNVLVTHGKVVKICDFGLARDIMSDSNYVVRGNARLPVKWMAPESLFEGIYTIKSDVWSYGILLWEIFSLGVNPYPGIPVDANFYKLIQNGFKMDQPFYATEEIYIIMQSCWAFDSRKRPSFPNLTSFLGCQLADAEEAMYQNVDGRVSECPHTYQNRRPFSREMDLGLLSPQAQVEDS

[16] = biological target: IRAK3 (human) (UniProt Q9Y616)
IRAK3 (human), sequence (Q9Y616 whole entry, looked up): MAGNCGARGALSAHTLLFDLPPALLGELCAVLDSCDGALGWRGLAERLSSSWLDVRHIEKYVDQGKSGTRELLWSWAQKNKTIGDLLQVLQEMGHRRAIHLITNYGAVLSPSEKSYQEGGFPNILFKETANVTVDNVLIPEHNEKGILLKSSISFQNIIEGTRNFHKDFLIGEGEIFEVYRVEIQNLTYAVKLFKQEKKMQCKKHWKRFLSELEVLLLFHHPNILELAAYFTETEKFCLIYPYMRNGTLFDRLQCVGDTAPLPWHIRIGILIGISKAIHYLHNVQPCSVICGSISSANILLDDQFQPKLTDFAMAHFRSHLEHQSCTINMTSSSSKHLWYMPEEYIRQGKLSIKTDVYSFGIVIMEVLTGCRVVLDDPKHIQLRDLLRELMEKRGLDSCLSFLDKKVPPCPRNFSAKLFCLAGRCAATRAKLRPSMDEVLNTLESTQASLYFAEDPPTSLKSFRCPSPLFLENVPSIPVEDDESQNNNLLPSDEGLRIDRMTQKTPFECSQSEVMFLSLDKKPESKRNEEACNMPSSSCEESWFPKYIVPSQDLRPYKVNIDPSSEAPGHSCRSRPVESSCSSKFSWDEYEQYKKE

[17] = biological target: JAK1 JH1 catalytic (human) (UniProt P23458)
[18] = biological target: JAK2 JH1 catalytic (human) (UniProt O60674)
[19] = system: KIT (human), P10721 [A829P]
[20] = system: KIT (human), P10721 [D816H]
[21] = system: KIT (human), P10721 [D816V]
[22] = biological target: LCK (human) (UniProt P06239)
[23] = biological target: MAP3K7 (human) (UniProt O43318)
[24] = biological target: MAPK12 (human) (UniProt P53778)
MAPK12 (human), sequence (P53778 whole entry, looked up): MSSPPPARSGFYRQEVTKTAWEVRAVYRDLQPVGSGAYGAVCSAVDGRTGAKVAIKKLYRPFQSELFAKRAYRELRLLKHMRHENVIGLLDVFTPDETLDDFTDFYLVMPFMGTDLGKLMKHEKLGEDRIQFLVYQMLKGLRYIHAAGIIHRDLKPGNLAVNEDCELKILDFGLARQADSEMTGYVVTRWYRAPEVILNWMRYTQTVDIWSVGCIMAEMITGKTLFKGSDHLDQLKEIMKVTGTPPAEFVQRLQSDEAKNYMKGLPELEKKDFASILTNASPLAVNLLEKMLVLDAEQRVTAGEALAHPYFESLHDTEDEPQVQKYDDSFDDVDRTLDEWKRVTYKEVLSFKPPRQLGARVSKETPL

[25] = biological target: MAPK9 (human) (UniProt P45984)
[26] = biological target: MAPKAPK5 (human) (UniProt Q8IW41)
MAPKAPK5 (human), sequence (Q8IW41 whole entry, looked up): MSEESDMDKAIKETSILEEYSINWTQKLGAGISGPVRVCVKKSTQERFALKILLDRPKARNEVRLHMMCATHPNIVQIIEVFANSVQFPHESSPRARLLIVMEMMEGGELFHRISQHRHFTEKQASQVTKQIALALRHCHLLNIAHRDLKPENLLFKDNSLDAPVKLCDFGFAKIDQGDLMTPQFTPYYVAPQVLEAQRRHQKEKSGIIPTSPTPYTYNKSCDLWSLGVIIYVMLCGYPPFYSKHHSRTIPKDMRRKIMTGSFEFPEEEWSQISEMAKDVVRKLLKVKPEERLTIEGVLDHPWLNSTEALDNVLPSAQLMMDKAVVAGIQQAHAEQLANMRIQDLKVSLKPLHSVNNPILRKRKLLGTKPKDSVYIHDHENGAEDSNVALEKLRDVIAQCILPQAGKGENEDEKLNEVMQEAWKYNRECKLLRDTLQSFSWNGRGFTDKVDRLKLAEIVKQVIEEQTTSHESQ

[27] = biological target: MET (human) (UniProt P08581)
[28] = biological target: NEK7 (human) (UniProt Q8TDX7)
[29] = biological target: NTRK1 (human) (UniProt P04629)
[30] = biological target: NTRK3 (human) (UniProt Q16288)
[31] = biological target: PDGFRB (human) (UniProt P09619)
[32] = biological target: PKMYT1 (human) (UniProt Q99640)
[33] = biological target: PKN1 (human) (UniProt Q16512)
[34] = biological target: PKN3 (M.tuberculosis) (UniProt Q6P5Z2)
[35] = biological target: PRKCH (human) (UniProt P24723)
PRKCH (human), sequence (P24723 whole entry, looked up): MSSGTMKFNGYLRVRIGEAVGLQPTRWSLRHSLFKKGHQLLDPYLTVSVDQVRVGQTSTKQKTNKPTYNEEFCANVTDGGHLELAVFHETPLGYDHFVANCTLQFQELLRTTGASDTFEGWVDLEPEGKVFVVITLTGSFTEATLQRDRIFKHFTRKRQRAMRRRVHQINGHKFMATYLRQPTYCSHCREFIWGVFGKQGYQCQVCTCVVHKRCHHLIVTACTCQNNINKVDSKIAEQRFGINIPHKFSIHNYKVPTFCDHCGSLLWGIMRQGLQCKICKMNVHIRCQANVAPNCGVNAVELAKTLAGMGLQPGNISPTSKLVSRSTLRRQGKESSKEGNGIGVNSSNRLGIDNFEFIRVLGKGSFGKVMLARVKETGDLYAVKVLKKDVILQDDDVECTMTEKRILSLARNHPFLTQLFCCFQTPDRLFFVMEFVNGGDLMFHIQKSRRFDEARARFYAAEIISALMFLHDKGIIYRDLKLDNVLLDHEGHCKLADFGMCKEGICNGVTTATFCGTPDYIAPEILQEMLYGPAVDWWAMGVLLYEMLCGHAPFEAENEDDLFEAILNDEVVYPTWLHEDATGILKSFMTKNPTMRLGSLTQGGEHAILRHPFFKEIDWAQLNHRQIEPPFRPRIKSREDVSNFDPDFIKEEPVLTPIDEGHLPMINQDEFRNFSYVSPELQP

[36] = biological target: RIPK4 (human) (UniProt P57078)
[37] = biological target: ROCK2 (human) (UniProt O75116)
[38] = biological target: SGK3 (human) (UniProt Q96BR1)
[39] = biological target: SRMS (human) (UniProt Q9H3Y6)
[40] = biological target: STK17A (human) (UniProt Q9UEE5)
STK17A (human), sequence (Q9UEE5 whole entry, looked up): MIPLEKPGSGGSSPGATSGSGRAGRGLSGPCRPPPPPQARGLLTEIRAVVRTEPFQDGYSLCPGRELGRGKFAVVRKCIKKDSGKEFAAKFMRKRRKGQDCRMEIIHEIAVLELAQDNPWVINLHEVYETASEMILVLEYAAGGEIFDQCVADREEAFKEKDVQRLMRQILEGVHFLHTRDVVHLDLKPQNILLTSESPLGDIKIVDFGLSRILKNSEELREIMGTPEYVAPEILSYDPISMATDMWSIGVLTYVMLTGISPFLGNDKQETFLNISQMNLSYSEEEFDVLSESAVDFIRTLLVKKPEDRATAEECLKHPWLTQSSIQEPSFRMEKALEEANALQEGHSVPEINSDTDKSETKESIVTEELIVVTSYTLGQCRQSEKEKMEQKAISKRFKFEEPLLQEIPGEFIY

[41] = biological target: STK36 (human) (UniProt Q9NRP7)
[42] = biological target: STK38 (human) (UniProt Q15208)
STK38 (human), sequence (Q15208 whole entry, looked up): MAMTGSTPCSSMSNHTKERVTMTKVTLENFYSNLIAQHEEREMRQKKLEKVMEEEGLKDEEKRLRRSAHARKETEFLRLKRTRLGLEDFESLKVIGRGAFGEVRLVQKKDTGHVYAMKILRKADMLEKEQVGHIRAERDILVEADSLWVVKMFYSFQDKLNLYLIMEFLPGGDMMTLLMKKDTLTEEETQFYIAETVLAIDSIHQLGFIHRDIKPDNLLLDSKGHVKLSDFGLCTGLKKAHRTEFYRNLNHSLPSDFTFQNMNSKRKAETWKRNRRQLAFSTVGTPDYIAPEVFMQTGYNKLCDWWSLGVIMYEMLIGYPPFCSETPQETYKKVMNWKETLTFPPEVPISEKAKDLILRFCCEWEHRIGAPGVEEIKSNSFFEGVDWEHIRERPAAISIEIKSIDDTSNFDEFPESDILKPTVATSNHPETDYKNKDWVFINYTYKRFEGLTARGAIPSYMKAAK

Cc1cc([C@@H](C)Nc2ccccc2C(=O)O)c2nc(N3CCOCC3)cc(=O)n2c1
kinase still bound, per cent of control [1]: 89% | kinase still bound, per cent of control [2]: 100% | kinase still bound, per cent of control [3]: 100% | kinase still bound, per cent of control [4]: 92% | kinase still bound, per cent of control [5]: 100% | kinase still bound, per cent of control [6]: 96% | kinase still bound, per cent of control [7]: 69% | kinase still bound, per cent of control [8]: 56% | kinase still bound, per cent of control [9]: 55% | kinase still bound, per cent of control [10]: 92% | kinase still bound, per cent of control [11]: 64% | kinase still bound, per cent of control [12]: 100% | kinase still bound, per cent of control [13]: 96% | kinase still bound, per cent of control [14]: 100% | kinase still bound, per cent of control [15]: 4.2% | kinase still bound, per cent of control [16]: 75% | kinase still bound, per cent of control [17]: 70% | kinase still bound, per cent of control [18]: 71% | kinase still bound, per cent of control [19]: 87% | kinase still bound, per cent of control [20]: 93% | kinase still bound, per cent of control [21]: 100% | kinase still bound, per cent of control [22]: 81% | kinase still bound, per cent of control [23]: 100% | kinase still bound, per cent of control [24]: 82% | kinase still bound, per cent of control [25]: 69% | kinase still bound, per cent of control [26]: 90% | kinase still bound, per cent of control [27]: 95% | kinase still bound, per cent of control [28]: 98% | kinase still bound, per cent of control [29]: 69% | kinase still bound, per cent of control [30]: 75% | kinase still bound, per cent of control [31]: 58% | kinase still bound, per cent of control [32]: 99% | kinase still bound, per cent of control [33]: 100% | kinase still bound, per cent of control [34]: 100% | kinase still bound, per cent of control [35]: 95% | kinase still bound, per cent of control [36]: 87% | kinase still bound, per cent of control [37]: 89% | kinase still bound, per cent of control [38]: 100% | kinase still bound, per cent of control [39]: 100% | kinase still bound, per cent of control [40]: 87% | kinase still bound, per cent of control [41]: 82% | kinase still bound, per cent of control [42]: 84%
